Results as given in ChEMBL document CHEMBL1201862, “PubChem BioAssay data set” (2004).
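Dose response: 5 concentrations. Exposure: 48 h. Format: 96-well plates. Endpoint: linear interpolation; highest concentration if not reached. Abbreviation: GI50, concentration required for 50% inhibition of growth.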 Calls of active or inactive are those of the source. No stated cut-off is given here; in the data, active = GI50 up to about 1.1 µM and inactive = higher.

Experiments:
Assay in all cases: NCI tumour cell line growth inhibition, 48 h
U-251 = system: U-251
SN12C = system: SN12C
BT-549 = system: BT-549
MDA-MB-231 = system: MDA-MB-231
LOX IMVI = system: LOX IMVI
PC-3 = system: PC-3
OVCAR-5 = system: OVCAR-5
UACC-62 = system: UACC-62
SF-268 = system: SF-268
A498 = system: A498
MDA-N = system: MDA-N
HOP-62 = system: HOP-62
OVCAR-8 = system: OVCAR-8
DU-145 = system: DU-145
HT-29 = system: HT-29
MOLT-4 = system: MOLT-4
SNB-75 = system: SNB-75
TK-10 = system: TK-10
CCRF-CEM = system: CCRF-CEM

SMILES	GI50 (U-251)	GI50 (SN12C)	GI50 (BT-549)	GI50 (MDA-MB-231)	GI50 (LOX IMVI)	GI50 (PC-3)	GI50 (OVCAR-5)	GI50 (UACC-62)	GI50 (SF-268)	GI50 (A498)	GI50 (MDA-N)	GI50 (HOP-62)	GI50 (OVCAR-8)	GI50 (DU-145)	GI50 (HT-29)	GI50 (MOLT-4)	GI50 (SNB-75)	GI50 (TK-10)	GI50 (CCRF-CEM)
Nc1ccn(C2OC(CO)C(O)C2(F)F)c(=O)n1 (stereo not drawn)	0.162 µM (active)	0.261 µM (active)	0.33 µM (active)	0.828 µM (active)	0.157 µM (active)	0.885 µM (active)	0.547 µM (active)	0.127 µM (active)	0.226 µM (active)	0.186 µM (active)	0.237 µM (active)	0.0867 µM (active)	0.051 µM (active)	0.179 µM (active)	0.492 µM (active)	0.091 µM (active)			
COc1ccc(NC(C)c2ccncc2)cc1 (stereo not drawn)	> 100 µM (inactive)	> 100 µM (inactive)	> 100 µM (inactive)	> 100 µM (inactive)	> 100 µM (inactive)	> 100 µM (inactive)	> 100 µM (inactive)		> 100 µM (inactive)	> 100 µM (inactive)	> 100 µM (inactive)	> 100 µM (inactive)	> 100 µM (inactive)	> 100 µM (inactive)	> 100 µM (inactive)	> 100 µM (inactive)	> 100 µM (inactive)	> 100 µM (inactive)	> 100 µM (inactive)
O=C(c1ccccc1)C(C(=O)c1ccccc1)c1nc2ccccc2sc1=O	5.73 µM (inactive)	6.22 µM (inactive)	5.92 µM (inactive)	11.6 µM (inactive)	9.68 µM (inactive)	12.9 µM (inactive)	> 25 µM (inactive)	7.11 µM (inactive)	> 25 µM (inactive)	> 25 µM (inactive)	> 25 µM (inactive)	9.59 µM (inactive)	9.29 µM (inactive)	> 25 µM (inactive)	17 µM (inactive)	8.09 µM (inactive)		16.9 µM (inactive)	6.24 µM (inactive)
c1ccc2c(c1)N=C(NC1CCCCC1)CCN2	> 100 µM (inactive)	> 100 µM (inactive)	> 100 µM (inactive)	> 100 µM (inactive)		> 100 µM (inactive)	> 100 µM (inactive)	> 100 µM (inactive)	> 100 µM (inactive)	> 100 µM (inactive)	> 100 µM (inactive)	> 100 µM (inactive)	> 100 µM (inactive)	> 100 µM (inactive)	77.6 µM (inactive)	63.2 µM (inactive)	22 µM (inactive)	> 100 µM (inactive)	> 100 µM (inactive)
CN1C2=Nc3n(C)c4ccccc4[n+]3CN2c2ccccc21	25.2 µM (inactive)	25.8 µM (inactive)	> 100 µM (inactive)	34.6 µM (inactive)		47.3 µM (inactive)	84.1 µM (inactive)	17 µM (inactive)	13.1 µM (inactive)		17.8 µM (inactive)	> 100 µM (inactive)	57.1 µM (inactive)	43.3 µM (inactive)	38 µM (inactive)	16.8 µM (inactive)		> 100 µM (inactive)	47.4 µM (inactive)
Cc1cc(S(N)(=O)=O)c(SCc2nc(N)nc(N(C)C)n2)cc1Cl	> 10 µM (inactive)	> 10 µM (inactive)	> 10 µM (inactive)		> 10 µM (inactive)	> 10 µM (inactive)	> 10 µM (inactive)		> 10 µM (inactive)	> 10 µM (inactive)	> 10 µM (inactive)	> 10 µM (inactive)	> 10 µM (inactive)	> 10 µM (inactive)	> 10 µM (inactive)	> 10 µM (inactive)	> 10 µM (inactive)	> 10 µM (inactive)	> 10 µM (inactive)
CC1=NN(c2ccccc2Cl)C2(C1)SCC(=O)N2c1nc2ccccc2s1 (stereo not drawn)	> 100 µM (inactive)	> 100 µM (inactive)	> 100 µM (inactive)	> 100 µM (inactive)	> 100 µM (inactive)	> 100 µM (inactive)	> 100 µM (inactive)	> 100 µM (inactive)	> 100 µM (inactive)	> 100 µM (inactive)	> 100 µM (inactive)	> 100 µM (inactive)	> 100 µM (inactive)	> 100 µM (inactive)	> 100 µM (inactive)		> 100 µM (inactive)	> 100 µM (inactive)	
O=C1OC(=O)C(=C\c2ccc3c(c2)OCO3)/C1=C/c1ccc2c(c1)OCO2	> 80.7 µM (inactive)	> 100 µM (inactive)	> 100 µM (inactive)	> 100 µM (inactive)	> 100 µM (inactive)	> 100 µM (inactive)	> 100 µM (inactive)	> 72.1 µM (inactive)	> 100 µM (inactive)	> 100 µM (inactive)	> 100 µM (inactive)	> 100 µM (inactive)	> 84.5 µM (inactive)	> 100 µM (inactive)	> 100 µM (inactive)	37.8 µM (inactive)		> 100 µM (inactive)	25.9 µM (inactive)
